Source: ChEMBL document CHEMBL1125986, “()-2-amino-2-thiazoline-4-ethanoic acid; a novel, specific GABAA receptor agonist” (Bioorg Med Chem Lett, 1991)

Key:
Rattus norvegicus = species on record: Rattus norvegicus; test: Tested for inhibition of CA1 population spike in rat hippocampal slice by electrophysiological experiment; format: functional; conditions: Hippocampus
[1] = molecular target: GABA-A receptor; anion channel; test: Effective concentration for stimulation of [3H]diazepam binding to rat cortical membranes; format: functional, cell membranes, Membrane
[2] = molecular target: GABA-A receptor; anion channel; test: Inhibition of [3H]-GABA binding to GABA-A receptor in rat cerebral cortex homogenates; format: tissue-based
[3] = molecular target: GABA-A receptor; anion channel (Rattus norvegicus) (UniProt O09028+P15431+P18506+P18508+P19969+P20236+P23574+P23576+P28471+P28473+P30191+P62813+P63079+P63138+Q91ZM7+Q9ES14); test: Enhanced [3H]benzodiazepine binding in rat cortical membranes at 100 uM; format: cell membranes

Row | EC50 (Rattus norvegicus) | EC50 [1] | IC50 [2] | Activity [3] | Compound
1 | 28.3 µM | 3.4 µM | 0.5 µM | 142% | NC1=NC(CC(=O)O)CS1 (centres undefined)
2 | 13 µM | 3.1 µM | 0.49 µM | 156% | O=C(O)C1=CCNCC1 [ISOGUVACINE]

Row | Compound | EC50 (Rattus norvegicus) | EC50 [1] | IC50 [2] | Activity [3]
3 | Oc1noc2c1CCNC2 [GABOXADOL] | 55 µM | – | – | –
